The values below come from ChEMBL document CHEMBL1201862, “PubChem BioAssay data set” (2004).

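These data come from cells grown in 96-well plates and exposed to compound for 48 hours at five concentrations. Abbreviation: GI50, concentration required for 50% inhibition of growth.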 Activity calls are given as the source filed them. No stated cut-off is given here; in the data, active = GI50 up to about 1.1 µM and inactive = higher.

Holding throughout (assay): inhibition of tumour cell growth, NCI panel, 48 h
Test [1] has as its system OVCAR-3.
Test [2] deals with UO-31.
Test [3] deals with K562.
Test [4] concerns RPMI-8226.
In test [5] the test system is EKVX.
Test [6] relates to UACC-257.
The subject of test [7] is SNB-19.
Test [8] has as its system M14.
Test [9] has as its system UACC-62.
Test [10] concerns NCI-H522.
In test [11] the test system is OVCAR-4.
In test [12] the test system is LOX IMVI.
Test [13] concerns SF-295.
Test [14] concerns HOP-92.
Test [15] has as its system IGROV-1.
The subject of test [16] is SK-OV-3.
The test system of test [17] is NCI-H226.
For test [18], the system named is OVCAR-5.
In test [19] the test system is ACHN.
In test [20] the test system is HL-60.

As for `COC(=O)/C=C/C1C(C(=O)OC)C2(C(=O)OC)CCC1(C(=O)OC)N2` (stereo not given), the GI50 in [1], in [2], in test [3], in test [4], in [5] and in test [6] was > 100 µM (inactive) throughout. The GI50 in [7], in test [8], in [9], in test [10], in [11] and in [12] was > 100 µM (inactive) throughout. For the same compound, the GI50 in test [13], in [14], in [15], in [16], in [17] and in test [18] was > 100 µM (inactive) throughout. For the same compound, the GI50 in test [19] and in test [20] was > 100 µM (inactive) in each case.

On to `C=C1CC(c2ccc(OCCCN3C(=O)c4ccccc4C3=O)cc2)OC1=O` (stereo not given), for which the GI50 in test [1] is 1.86 µM (inactive); in test [2], 3.74 µM (inactive); in test [3] it was 1.52 µM (inactive); in test [4], 1.12 µM (inactive); in test [5], 3.9 µM (inactive); in test [6] it was 2.19 µM (inactive). Moreover, the GI50 in [7] is 7.38 µM (inactive); in test [8] it was 2.55 µM (inactive); in test [9], 1.97 µM (inactive); in [10], 0.653 µM (active); in test [11] it was 2.45 µM (inactive); in [12], 1.36 µM (inactive). Besides, the GI50 in test [13] was 10.5 µM (inactive); in [14], 1.36 µM (inactive); in [15] it was 1.06 µM (active); in test [16] it was 14.4 µM (inactive); in [17], 1.46 µM (inactive); in test [18] it was 11.4 µM (inactive). Further, the GI50 in test [19] is 4.19 µM (inactive); in test [20] it was 1.96 µM (inactive).

Take `O=C(NCC1Nc2ccncc2S(=O)(=O)N1)c1ccc(Br)cc1` (stereo not given): the GI50 is 30.8 µM (inactive) in test [1]; 25.1 µM (inactive) in test [2]; 33.2 µM (inactive) in [3]; 32.5 µM (inactive) in test [4]; > 100 µM (inactive) in test [5]; > 100 µM (inactive) in test [6]. In addition, the GI50 is 81.3 µM (inactive) in test [7]; 19.3 µM (inactive) in test [8]; 58.7 µM (inactive) in [9]; 28.2 µM (inactive) in test [10]; 64.6 µM (inactive) in [11]; 38.6 µM (inactive) in test [12]. Further, the GI50 in test [13] was > 100 µM (inactive); in test [14] it was 34.4 µM (inactive); in [15], 80.5 µM (inactive); in [16] it was > 100 µM (inactive); in [17], > 100 µM (inactive); in test [18], > 100 µM (inactive). Besides, the GI50 was > 100 µM (inactive) in test [19] and 30.1 µM (inactive) in test [20].

Regarding `N=C(Cc1ccccc1)NCC(=O)O`, the GI50 in [1], in test [2], in test [3], in test [4], in test [5] and in test [6] was > 100 µM (inactive) throughout. Besides, the GI50 in test [7], in [8], in test [9], in [10], in test [11] and in test [12] was > 100 µM (inactive) in each case. Besides, the GI50 in test [13], in test [14], in [15], in test [16], in [17] and in test [18] was > 100 µM (inactive) throughout. The GI50 in test [19] and in [20] was > 100 µM (inactive) each time.

On to `OCc1ccc2c(c1)CC1(C2)Cc2cc3c(cc2C1O)CCC3` (stereo not given), for which the GI50 was 4.78 µM (inactive) in test [1]; 5.9 µM (inactive) in [2]; 1.58 µM (inactive) in [3]; 3.18 µM (inactive) in test [4]; 10.1 µM (inactive) in [5]; 2.3 µM (inactive) in [6]. The GI50 was 4.97 µM (inactive) in test [7]; 3.4 µM (inactive) in test [8]; 3.72 µM (inactive) in [9]; 3.23 µM (inactive) in test [10]; 10.4 µM (inactive) in [11]; 5.18 µM (inactive) in [12]. Further, the GI50 is 2.2 µM (inactive) in [13]; 12.2 µM (inactive) in test [14]; 4.84 µM (inactive) in test [15]; 8.75 µM (inactive) in test [16]; 7.31 µM (inactive) in test [17]; 18.9 µM (inactive) in test [18]. For the same compound, the figures for the GI50 in test [19] and in test [20] were 6.67 µM (inactive) and 2.2 µM (inactive), respectively.

As for `O=C(O)C(O)C(O)C(O)C(O)CO.[Ba+2]` (stereo not given), the GI50 in [1], in test [2], in test [3], in test [4], in [5] and in [6] was > 100 µM (inactive) throughout. Also, the GI50 in test [7], in test [8], in test [9], in test [10], in test [11] and in [12] was > 100 µM (inactive) each time. Besides, the GI50 in [13], in test [14], in test [15], in [16], in test [17] and in test [18] was > 100 µM (inactive) each time. Moreover, the results for the GI50 in test [19] and in test [20] were > 100 µM (inactive) and 3.12 µM (inactive), respectively.

For the compound `Nc1c([N+](=O)[O-])nc(Cl)c2nncn12`, the GI50 in [1] was > 100 µM (inactive); in [2], > 100 µM (inactive); in test [3] it was > 72.4 µM (inactive); in [4], > 47.1 µM (inactive); in test [5], > 100 µM (inactive); in [6], > 100 µM (inactive). The GI50 in test [7] was > 100 µM (inactive); in test [8] it was > 100 µM (inactive); in [9], > 100 µM (inactive); in test [10], > 74.6 µM (inactive); in [11] it was > 100 µM (inactive); in test [12] it was > 43.8 µM (inactive). The GI50 in test [13], in test [14], in test [15], in [16], in test [17] and in [18] was > 100 µM (inactive) each time. The GI50 in test [19] and in test [20] was > 100 µM (inactive) in each case.
